Calls of active or inactive are those of the source. How the calls were made is not given here.
Test: H9c2 cardiomyoblast viability modulators under 2-DG – cell-based, ATPlite luminescence, rat, set 2, myocardial damage modulator project, dose response (AID 602210)
Conditions: H9c2 rat cardiomyoblasts, 2-deoxyglucose-induced death, 2 h
In the case of `COc1ccc(N(CC(=O)Nc2cccc(C(C)=O)c2)S(=O)(=O)c2ccc(NC(C)=O)cc2)cc1`, the IC50 is reported as 13.4 µM (inactive). With `COc1ccc2c(c1OC)C(=O)N1c3ccccc3C(=O)N(c3ccccc3)C21` (centres undefined) the IC50 was 8.7 µM. With `Cc1nc(N2CCN(c3ccccn3)CC2)c2c(C)c(C(=O)Nc3ccc(F)cc3)sc2n1` the IC50 was 14.9 µM (inactive). For `COc1ccccc1OCC(=O)N/N=C/c1cccc2cccnc12`, the IC50 was > 79 µM (inactive). In the case of `COC(=O)c1cc(C(=O)OCC(=O)N2c3ccccc3NC(=O)C2(C)C)cc([N+](=O)[O-])c1`, the IC50 is reported as 47.6 µM (inactive). For `NC(=O)c1nsc(C(=O)N(Cc2ccco2)C(C(=O)NCc2ccccc2)c2ccc(O)cc2)c1N` (centres undefined), the IC50 was 14.9 µM (inactive). In the case of `CCc1nc(N2CCN(C(=O)c3ccco3)CC2)c2oc3ccccc3c2n1`, the IC50 is reported as 24.7 µM (inactive). `COc1cc(NC(=O)c2csc(-c3ccncc3)n2)cc(C(=O)Nc2cccc(C(F)(F)F)c2)c1` showed an IC50 of 7.25 µM. For `CCn1c(O)c(/C=N/N=C/c2ccccc2)c2ccc(C3=NNC(=O)CC3)cc21`, the IC50 was 10.7 µM (inactive). For `COc1cc(C(=O)N/N=C/c2ccc(OC(=O)c3ccccc3)c(OC)c2)ccc1O`, the IC50 was 14.8 µM (inactive). With `CC(=O)Nc1cc(-c2cccc(C(=O)N(C)C)c2)cn2c(-c3ccc(C(C)=O)cc3)cnc12` the IC50 was 27.1 µM (inactive). With `CCOC(=O)N1CCc2c(sc(NC(=O)CN3CCOCC3)c2C(=O)Nc2ccccc2)C1` the IC50 was > 79 µM (inactive). In the case of `Cc1c(O)ccc2c(-c3ccccc3)cc(=O)oc12`, the IC50 is reported as 31.7 µM (inactive). For `Cc1cc(NC(=O)c2cccs2)cc(-c2nc3ncccc3o2)c1O`, the IC50 was > 79 µM (inactive). With `COC(=O)c1[nH]c2ccccc2c1NC(=O)CNC1CCCCC1` the IC50 was 13.5 µM (inactive). In the case of `N#Cc1c(-c2ccco2)cc(-c2cccnc2)nc1N`, the IC50 is reported as 26.1 µM (inactive). `CCOc1cc(/C=C(\C#N)C(=O)Nc2ccc(S(N)(=O)=O)cc2)ccc1OCCN1CCOCC1` gave an IC50 of 9.62 µM. For `COCCn1nnnc1CN(CCc1ccccc1)Cc1cc2cc(OC)ccc2[nH]c1=O`, the IC50 was > 79 µM (inactive). With `O=C(CN1CCN(Cc2ccccc2)CC1)Nc1ccc([N+](=O)[O-])cc1C(=O)Nc1ccccc1F` the IC50 was 24.6 µM (inactive). With `COc1cc(/C=N\NC(=O)c2cccnc2)ccc1OC(=O)c1ccccc1Cl` the IC50 was > 79 µM (inactive). Work on `O=C1OCCN1C(=O)[C@H]1[C@H](c2ccc([N+](=O)[O-])cc2)C(c2ccc(F)cc2)=NN1c1ccc(Br)cc1` yielded an IC50 of 8.93 µM. With `O=C(N/N=C/c1ccncc1)c1ccc(COc2cccc3cccnc23)cc1` the IC50 was > 79 µM (inactive). With `CCOC(=O)c1nc(Nc2ccc(C(=O)OC)cc2)c2ccccc2n1` the IC50 was > 79 µM (inactive). For `Cc1ccccc1NP(=O)(Oc1ccccc1F)Oc1ccccc1F`, the IC50 was > 79 µM (inactive). In the case of `O=C(Nc1nc(-c2ccccn2)cs1)c1ccc(-c2ccccc2F)o1`, the IC50 is reported as > 79 µM (inactive). In the case of `CC(=O)Nc1cccc(NC(=O)c2cc(-c3cccnc3)nc3ccc(Cl)cc23)c1`, the IC50 is reported as > 79 µM (inactive). In the case of `CC12CCC3C(CCC4CC(O)CCC43C)C1CC(O)C2` (centres undefined), the IC50 is reported as 10.4 µM (inactive). `COc1ccccc1NC(=O)c1cc(-c2cc(OC)c(OC)c(OC)c2)nc2ccccc12` gave an IC50 of 8.68 µM. For `COc1ccc(-c2oc3c(OC)c(OC)c(OC)c(O)c3c(=O)c2OC)cc1OC`, the IC50 was > 79 µM (inactive). With `Cc1c(OCC(=O)NCCN2CCOCC2)ccc2c1oc(=O)c1ccccc12` the IC50 was 17.1 µM (inactive). For `COc1ccc(/C=N/NC(=O)c2cc(-c3ccc4c(c3)OCO4)n[nH]2)cc1OC`, the IC50 was 9.02 µM. For `COc1cc(C(=O)NCC(=O)N/N=C/c2ccc(-c3cccc([N+](=O)[O-])c3)o2)cc(OC)c1OC`, the IC50 was 17.5 µM (inactive). With `CC(=O)Nc1cccc(-c2cc(NC=O)c3ncc(-c4ccc(C(C)=O)cc4)n3c2)c1` the IC50 was 13.6 µM (inactive). In the case of `CC(C)(C)OC(=O)N1CCC[C@H]1c1nnc(SCC(=O)Nc2ccc(Br)cc2)o1`, the IC50 is reported as 19.8 µM (inactive). For `NC(=O)c1cccc(-c2coc3c(C(=O)NCCc4ccccc4)cccc23)c1`, the IC50 was 13.3 µM (inactive). In the case of `CC(C)(C)OC(=O)C[C@@H]1C/C=C\C[C@@H](CC(=O)N[C@@H](CO)Cc2ccccc2)C(=O)NC[C@@H](c2ccccc2)OC1=O`, the IC50 is reported as 22.6 µM (inactive). In the case of `CC(=O)c1ccc(-c2cnc3c(NC=O)cc(-c4cccc(C(=O)N(C)C)c4)cn23)cc1`, the IC50 is reported as 12.2 µM (inactive). In the case of `COc1nc(N/N=C/c2cc3c(cc2Br)OCO3)nc(N2CCOCC2)n1`, the IC50 is reported as 17.4 µM (inactive). For `COc1ccc(-c2nnc(-c3cc(OC)c(OC)c(OC)c3)o2)cc1OC`, the IC50 was 15.9 µM (inactive). Molecule `COc1ccc(-c2cc(C(=O)Nc3ccccc3N3CCOCC3)c3ccccc3n2)cc1OC` has an IC50 of 7.58 µM. With `CC(=O)NCc1ccc(-c2csc(NC(=O)CCc3nc4ccccc4c(=O)[nH]3)n2)s1` the IC50 was 28.5 µM (inactive). In the case of `O=C(NCC(=O)N(Cc1cccs1)C(C(=O)NC1CCCCC1)c1ccco1)c1ccco1` (centres undefined), the IC50 is reported as 18.5 µM (inactive). With `COc1ccc(-c2oc(=O)c3cc(OC)c(OC)cc3c2C#CCCO)cc1` the IC50 was 21.7 µM (inactive). Work on `CC(=O)Nc1ccc(S(=O)(=O)N(Cc2cccnc2)Cc2cc3ccccc3[nH]c2=O)cc1` yielded an IC50 of 5.82 µM. With `COc1cc(NC(=O)c2cc3nc(-c4ccccc4)cc(-c4ccccc4)n3n2)cc(OC)c1OC` the IC50 was 7.15 µM. In the case of `COc1ccc(OC)c(/C=N/Nc2nncn2/N=C/c2cc(OC)ccc2OC)c1`, the IC50 is reported as > 79 µM (inactive). For `O=C(NCCN1CCN(c2ccccc2F)CC1)c1cccn2c(=O)c3ccccc3nc12`, the IC50 was 11.7 µM (inactive). For `CC(OC(=O)c1cc(-c2cccnc2)nc2ccccc12)C(=O)Nc1ccc2ccccc2c1` (centres undefined), the IC50 was 14.3 µM (inactive). For `Cc1nc2c(c(=O)n1CCC1=CCCCC1)c1nc3ccccc3nc1n2/N=C/c1ccccc1`, the IC50 was 15.1 µM (inactive). With `N#Cc1cnn2cc(-c3ncc(C(F)(F)F)cc3Cl)cnc12` the IC50 was 47.7 µM (inactive). In the case of `Cc1ccccc1C1c2[nH]c3ccccc3c2C[C@H]2C(=O)N(c3ccccc3C(=O)NCCCN3CCOCC3)C(=O)N12` (some centres undefined), the IC50 is reported as 46 µM (inactive). For `Cc1ccc2cc3c(NC(=O)c4cccnc4)nn(C)c3nc2c1`, the IC50 was 18.5 µM (inactive). For `CC(C)c1cc(N2CCN(C(=O)c3ccco3)CC2)n2c(nc3ccccc32)c1C#N`, the IC50 was 44.7 µM (inactive). In the case of `CCn1nc(C(=O)NNC(=O)c2cc(Cl)ccc2OC)c2ccccc2c1=O`, the IC50 is reported as > 79 µM (inactive). For `O=C(N/N=C\c1ccccn1)c1cccc(C(=O)N/N=C\c2ccccn2)n1`, the IC50 was 10.2 µM (inactive). In the case of `CCC(=O)N1CCN(c2ccccc2NC(=O)c2ccc(-c3cccc([N+](=O)[O-])c3)o2)CC1`, the IC50 is reported as > 79 µM (inactive). In the case of `COc1cc(C(=O)Nc2cc3c(cc2N2CCCCC2)n(C)c(=O)n3C)cc(OC)c1OC`, the IC50 is reported as 23.7 µM (inactive). With `COc1cc(/C=C/c2nnc3c4ccccc4ncn23)cc(OC)c1OC` the IC50 was 7.24 µM. For `CCOC(=O)N1CCC(n2c(SCC(=O)N3CCC(C)CC3)nc3ccccc3c2=O)CC1`, the IC50 was 31.6 µM (inactive). In the case of `C[C@H](CO)N1C[C@H](C)[C@@H](CN(C)S(=O)(=O)c2ccccc2)Oc2ccc(NC(=O)Nc3ccccc3)cc2C1=O`, the IC50 is reported as 36.2 µM (inactive). For `CC1(C)Oc2ccc3ccc(=O)oc3c2/C(=C/Nc2ccccn2)C1=O`, the IC50 was 12.4 µM (inactive). With `COc1cccc(/C=N/NC(=O)c2oc3nc(-c4ccccc4)cc(-c4ccco4)c3c2N)c1` the IC50 was 10.5 µM (inactive). With `CN(C)C(=O)/C=C\c1cn(-c2ccccc2)nc1-c1ccc2c(c1)OCCO2` the IC50 was 29.4 µM (inactive). Molecule `COc1ccccc1OP(=O)(Nc1cccnc1)Oc1ccccc1OC` has an IC50 of 8.19 µM.
